# Test results as given in patent publication US20260174766A1, “COMBINATION OF MENIN INHIBITOR(S) AND IMMUNOPROTEASOME INHIBITOR(S) FOR TREATMENT OF LEUKEMIA” (Medizinische Hochschule Hannover, priority 2022, published 2026).
# Experiments:
# [1] = system: MLL-rearranged murine leukemic cells; experiment: Methylcellulose colony-forming assay, MLL-rearranged murine leukemic cells; format: cell-based, mouse
# Procedure: Primary mouse bone marrow (BM) cells (transduced with MLL-AF9/KRAS, MLL-AF6, or AML1-ETO/KRAS) were seeded in MethoCult GF M3434 (StemCell Technologies) at a concentration of 1×10^3 cells/replicate. Colonies propagated in culture were scored at day 8. For re-plating of primary mouse BM cells, colonies were harvested from the methylcellulose medium, washed with PBS/1% FBS and seeded again at a concentration of 1×10^3 cells/replicate. MOLM-13 or ML-2 cells infected with either control or PSMB8/LMP7-specific shRNAs were plated at a concentration of 1×10^3 cells in MethoCult H4230 (StemCell Technologies) supplemented with 20% FBS and colony numbers were counted on day 10-14.
# [2] = system: MLL-AF9 driven leukemia; experiment: MLL-AF9 driven murine leukemia, in vivo PR-957 treatment of primary recipients; design: species or system mouse
# Procedure: For induction of MLL-AF9 (MA9) driven leukemia we used established retroviral MSCV-GFP-based vectors to express MA9 in hematopoietic stem- and progenitor cells (Lineage-negative, Sca1-positive, Kit-positive [LSK] cells). In detail, bone marrow (BM) of LMP7+/+ or LMP7−/− littermates was isolated following standard procedures from 6-12-weeks-old mice. Lineage-depletion was performed using Streptavidin Particles Plus-DM (BD Biosciences, Heidelberg, Germany) and a DynaMag magnet (Thermo Fisher Scientific). Lineage-depleted cells were stained with streptavidin BV421, KIT AF647 and Sca-1 FITC or PE antibodies (all antibodies were received from Biolegend, San Diego, CA, USA) and then used for cell sorting. Sorted LSK cells were pre-stimulated on RetroNectin-coated plates (Takara Bio USA, Inc., Mountain View, CA, USA) in serum-free medium (StemSpan™ SFEM, StemCell Technologies, Vancouver, Canada) supplemented with SCF, TPO, IL-3 and IL-6 (all cytokines from PeproTech, Hamburg, Germany) overnight. 20 hours after stimulation, LSK cells were infected twice (8 hours gap) by spinfection (872 g, 1.5 hours, 33° C.) with retroviral particles containing the oncogenic vectors. Cells were analyzed 48 hours after first infection for GFP-expression using flow cytometry and 7.5×10^4 GFP+ cells were injected into sublethally irradiated (7 Gy, single dose) primary recipient mice (C57BL/6J; females). For serial transplantation of leukemia, 3×10^5 whole bone marrow cells of diseased animals were transplanted into secondary C57BL/6J recipient mice (sublethal irradiation, 7 Gy, single dose). […]
# To characterize the effects of LMP7/PSMB8 inhibition in more detail, differentiation following PR-957 treatment was assessed. […]
smiles,measurement,setting,value
"COc1ccc(C[C@H](NC(=O)[C@H](C)NC(=O)CN2CCOCC2)C(=O)N[C@@H](Cc2ccccc2)C(=O)[C@]2(C)CO2)cc1 [PR-957, (2S)-3-(4-methoxyphenyl)-N-[(2S)-1-[(2S)-2-methyloxiran-2-yl]-1-oxo-3-phenylpropan-2-yl]-2-[[(2S)-2-[(2-morpholin-4-ylacetyl)amino]propanoyl]amino]propanamide]",colony size and shape,[1]; MLL-AF9 transformed leukemia,reduction of colony size and changes in colony shape
same,clonogenic potential (colony counts),"[1]; nanomolar concentrations (100 nM or 200 nM), serial replating, FIG. 2A",profound dose dependent reduction of clonogenic potential
same,leukemic cells in the peripheral blood and spleen size,"[2]; 6 mg/kg i.v. QD 3 weeks (5 days per week), 3 days after discontinuation, vs diluent, FIG. 2B,C",reduced compared to diluent treated controls
same,abundance of leukemic cells in the bone marrow,"[2]; 6 mg/kg i.v. QD 3 weeks (5 days per week), control 69.8%, FIG. 2D",42.9%
same,frequency of L-GMP populations,"[2]; 6 mg/kg i.v. QD 3 weeks, diluent control 3.57+/-0.52%, p=0.0087, FIG. 2E",2.25+/−0.8%
